Results reported in patent US20260232767A1, “INTERLEUKIN-23 RECEPTOR ANTAGONIST PEPTIDES FOR USE IN THE TREATMENT OF PSORIASIS” (Janssen Pharmaceutica NV, priority 2023, published 2026).

System: subjects with moderate-to-severe plaque psoriasis
Assay: IGA score, Example 2
Type: in vivo, human
From the text: Described below is a multicenter, long-term extension (LTE), double-blind, dose-ranging, parallel group interventional study in participants from Example 1 to evaluate the long-term efficacy and safety of the hydrochloride salt of the compound of Formula (I) for the treatment of moderate-to-severe plaque psoriasis. Patients from Example 1 continued to receive the same dose of the compound of Formula (I) for an additional 36-week treatment period with a 4-week safety follow up period after the last administration of the compound of Formula (I). Patients randomized to placebo in Example 1 received the compound of Formula (I) at a dose of 100 mg QD starting at Week 16 of Example 1 (FIG. 21).
Secondary endpoints included additional change from baseline of Example 1 in PASI, IGA, and PSSD at Week 52, including the proportions of subjects that achieved PAST 90, PAST 100, an IGA score of cleared (0) or minimal (1), PSSD symptoms score=0, and PSSD signs score=0.

[1] = Week 20, Placebo → 100 mg QD, N=35
[2] = Week 24, Placebo → 100 mg QD, N=35
[3] = Week 28, Placebo → 100 mg QD, N=35
[4] = Week 32, Placebo → 100 mg QD, N=35
[5] = Week 40, Placebo → 100 mg QD, N=35
[6] = Week 52, Placebo → 100 mg QD, N=35

CC(=O)NCCCC[C@@H]1NC(=O)[C@H](Cc2c[nH]c3c(C)cccc23)NC(=O)[C@H]([C@@H](C)O)NC(=O)[C@H](CC(N)=O)NC(=O)[C@@H](NC(C)=O)C(C)(C)SSC(C)(C)[C@@H](C(=O)N[C@@H](Cc2ccc(OCCN)cc2)C(=O)N[C@@H](Cc2ccc3ccccc3c2)C(=O)NC2(C(=O)N[C@@H](CCC(=O)O)C(=O)N[C@@H](CC(N)=O)C(=O)N[C@@H](Cc3cccnc3)C(=O)N(C)CC(N)=O)CCOCC2)NC1=O [IL-23 receptor antagonist peptide, Ac-[Pen]*-N-T-[W(7-Me)]-[Lys(Ac)]-[Pen]*-Phe[4-(2-aminoethoxy)]-[2-Nal]-[THP]-E-N-[3-Pal]-Sarc-NH2 (*[Pen]-[Pen]* formdisulfidebond)]
IGA Score ≤2 (‘Mild’or better), subjects (%) (Week 20, 100 mg QD, N=43): (72.1%)
IGA Score = 0 (‘Cleared’) or 1 (‘Minimal’), subjects (%) [1]: (28.6%)
IGA Score = 0 (‘Cleared’), subjects (%) [1]: (5.7%)
IGA Score ≤2 (‘Mild’or better), subjects (%) [1]: (71.4%)
IGA Score = 0 (‘Cleared’) or 1 (‘Minimal’), subjects (%) (Week 24, 25 mg BID, N=41): (39.0%)
IGA Score = 0 (‘Cleared’), subjects (%) (Week 24, 25 mg BID, N=41): (19.5%)
IGA Score ≤2 (‘Mild’or better), subjects (%) (Week 24, 25 mg BID, N=41): (75.6%)
IGA Score = 0 (‘Cleared’) or 1 (‘Minimal’), subjects (%) (Week 24, 25 mg QD, N=43): (37.2%)
IGA Score = 0 (‘Cleared’), subjects (%) (Week 24, 25 mg QD, N=43): (16.3%)
IGA Score ≤2 (‘Mild’or better), subjects (%) (Week 24, 25 mg QD, N=43): (67.4%)
IGA Score = 0 (‘Cleared’) or 1 (‘Minimal’), subjects (%) (Week 24, 50 mg QD, N=43): (60.5%)
IGA Score = 0 (‘Cleared’), subjects (%) (Week 24, 50 mg QD, N=43): (32.6%)
IGA Score ≤2 (‘Mild’or better), subjects (%) (Week 24, 50 mg QD, N=43): (81.4%)
IGA Score = 0 (‘Cleared’) or 1 (‘Minimal’), subjects (%) (Week 24, 100 mg BID, N=42): (73.8%)
IGA Score = 0 (‘Cleared’), subjects (%) (Week 24, 100 mg BID, N=42): (38.1%)
IGA Score ≤2 (‘Mild’or better), subjects (%) (Week 24, 100 mg BID, N=42): (78.6%)
IGA Score = 0 (‘Cleared’) or 1 (‘Minimal’), subjects (%) (Week 24, 100 mg QD, N=43): (65.1%)
IGA Score = 0 (‘Cleared’), subjects (%) (Week 24, 100 mg QD, N=43): (23.3%)
IGA Score ≤2 (‘Mild’or better), subjects (%) (Week 24, 100 mg QD, N=43): (76.7%)
IGA Score = 0 (‘Cleared’) or 1 (‘Minimal’), subjects (%) [2]: (54.3%)
IGA Score = 0 (‘Cleared’), subjects (%) [2]: (14.3%)
IGA Score ≤2 (‘Mild’or better), subjects (%) [2]: (85.7%)
IGA Score = 0 (‘Cleared’) or 1 (‘Minimal’), subjects (%) (Week 28, 25 mg BID, N=41): (41.5%)
IGA Score = 0 (‘Cleared’), subjects (%) (Week 28, 25 mg BID, N=41): (19.5%)
IGA Score ≤2 (‘Mild’or better), subjects (%) (Week 28, 25 mg BID, N=41): (73.2%)
IGA Score = 0 (‘Cleared’) or 1 (‘Minimal’), subjects (%) (Week 28, 25 mg QD, N=43): (37.2%)
IGA Score = 0 (‘Cleared’), subjects (%) (Week 28, 25 mg QD, N=43): (18.6%)
IGA Score ≤2 (‘Mild’or better), subjects (%) (Week 28, 25 mg QD, N=43): (65.1%)
IGA Score = 0 (‘Cleared’) or 1 (‘Minimal’), subjects (%) (Week 28, 50 mg QD, N=43): (62.8%)
IGA Score = 0 (‘Cleared’), subjects (%) (Week 28, 50 mg QD, N=43): (16.3%)
IGA Score ≤2 (‘Mild’or better), subjects (%) (Week 28, 50 mg QD, N=43): (76.7%)
IGA Score = 0 (‘Cleared’) or 1 (‘Minimal’), subjects (%) (Week 28, 100 mg BID, N=42): (64.3%)
IGA Score = 0 (‘Cleared’), subjects (%) (Week 28, 100 mg BID, N=42): (42.9%)
IGA Score ≤2 (‘Mild’or better), subjects (%) (Week 28, 100 mg BID, N=42): (78.6%)
IGA Score = 0 (‘Cleared’) or 1 (‘Minimal’), subjects (%) (Week 28, 100 mg QD, N=43): (62.8%)
IGA Score = 0 (‘Cleared’), subjects (%) (Week 28, 100 mg QD, N=43): (25.6%)
IGA Score ≤2 (‘Mild’or better), subjects (%) (Week 28, 100 mg QD, N=43): (74.4%)
IGA Score = 0 (‘Cleared’) or 1 (‘Minimal’), subjects (%) [3]: (60.0%)
IGA Score = 0 (‘Cleared’), subjects (%) [3]: (17.1%)
IGA Score ≤2 (‘Mild’or better), subjects (%) [3]: (85.7%)
IGA Score = 0 (‘Cleared’) or 1 (‘Minimal’), subjects (%) (Week 32, 25 mg BID, N=41): (46.3%)
IGA Score = 0 (‘Cleared’), subjects (%) (Week 32, 25 mg BID, N=41): (22.0%)
IGA Score ≤2 (‘Mild’or better), subjects (%) (Week 32, 25 mg BID, N=41): (73.2%)
IGA Score = 0 (‘Cleared’) or 1 (‘Minimal’), subjects (%) (Week 32, 25 mg QD, N=43): (39.5%)
IGA Score = 0 (‘Cleared’), subjects (%) (Week 32, 25 mg QD, N=43): (18.6%)
IGA Score ≤2 (‘Mild’or better), subjects (%) (Week 32, 25 mg QD, N=43): (60.5%)
IGA Score = 0 (‘Cleared’) or 1 (‘Minimal’), subjects (%) (Week 32, 50 mg QD, N=43): (58.1%)
IGA Score = 0 (‘Cleared’), subjects (%) (Week 32, 50 mg QD, N=43): (30.2%)
IGA Score ≤2 (‘Mild’or better), subjects (%) (Week 32, 50 mg QD, N=43): (79.1%)
IGA Score = 0 (‘Cleared’) or 1 (‘Minimal’), subjects (%) (Week 32, 100 mg BID, N=42): (66.7%)
IGA Score = 0 (‘Cleared’), subjects (%) (Week 32, 100 mg BID, N=42): (40.5%)
IGA Score ≤2 (‘Mild’or better), subjects (%) (Week 32, 100 mg BID, N=42): (78.6%)
IGA Score = 0 (‘Cleared’) or 1 (‘Minimal’), subjects (%) (Week 32, 100 mg QD, N=43): (67.4%)
IGA Score = 0 (‘Cleared’), subjects (%) (Week 32, 100 mg QD, N=43): (25.6%)
IGA Score ≤2 (‘Mild’or better), subjects (%) (Week 32, 100 mg QD, N=43): (76.7%)
IGA Score = 0 (‘Cleared’) or 1 (‘Minimal’), subjects (%) [4]: (65.7%)
IGA Score = 0 (‘Cleared’), subjects (%) [4]: (20.0%)
IGA Score ≤2 (‘Mild’or better), subjects (%) [4]: (80.0%)
IGA Score = 0 (‘Cleared’) or 1 (‘Minimal’), subjects (%) (Week 40, 25 mg BID, N=41): (31.7%)
IGA Score = 0 (‘Cleared’), subjects (%) (Week 40, 25 mg BID, N=41): (17.1%)
IGA Score ≤2 (‘Mild’or better), subjects (%) (Week 40, 25 mg BID, N=41): (68.3%)
IGA Score = 0 (‘Cleared’) or 1 (‘Minimal’), subjects (%) (Week 40, 25 mg QD, N=43): (41.9%)
IGA Score = 0 (‘Cleared’), subjects (%) (Week 40, 25 mg QD, N=43): (11.6%)
IGA Score ≤2 (‘Mild’or better), subjects (%) (Week 40, 25 mg QD, N=43): (67.4%)
IGA Score = 0 (‘Cleared’) or 1 (‘Minimal’), subjects (%) (Week 40, 50 mg QD, N=43): (58.1%)
IGA Score = 0 (‘Cleared’), subjects (%) (Week 40, 50 mg QD, N=43): (23.3%)
IGA Score ≤2 (‘Mild’or better), subjects (%) (Week 40, 50 mg QD, N=43): (79.1%)
IGA Score = 0 (‘Cleared’) or 1 (‘Minimal’), subjects (%) (Week 40, 100 mg BID, N=42): (66.7%)
IGA Score = 0 (‘Cleared’), subjects (%) (Week 40, 100 mg BID, N=42): (40.5%)
IGA Score ≤2 (‘Mild’or better), subjects (%) (Week 40, 100 mg BID, N=42): (78.6%)
IGA Score = 0 (‘Cleared’) or 1 (‘Minimal’), subjects (%) (Week 40, 100 mg QD, N=43): (65.1%)
IGA Score = 0 (‘Cleared’), subjects (%) (Week 40, 100 mg QD, N=43): (27.9%)
IGA Score ≤2 (‘Mild’or better), subjects (%) (Week 40, 100 mg QD, N=43): (69.8%)
IGA Score = 0 (‘Cleared’) or 1 (‘Minimal’), subjects (%) [5]: (57.1%)
IGA Score = 0 (‘Cleared’), subjects (%) [5]: (31.4%)
IGA Score ≤2 (‘Mild’or better), subjects (%) [5]: (74.3%)
IGA Score = 0 (‘Cleared’) or 1 (‘Minimal’), subjects (%) (Week 52, 25 mg BID, N=41): (46.3%)
IGA Score = 0 (‘Cleared’), subjects (%) (Week 52, 25 mg BID, N=41): (19.5%)
IGA Score ≤2 (‘Mild’or better), subjects (%) (Week 52, 25 mg BID, N=41): (63.4%)
IGA Score = 0 (‘Cleared’) or 1 (‘Minimal’), subjects (%) (Week 52, 25 mg QD, N=43): (37.2%)
IGA Score = 0 (‘Cleared’), subjects (%) (Week 52, 25 mg QD, N=43): (14.0%)
IGA Score ≤2 (‘Mild’or better), subjects (%) (Week 52, 25 mg QD, N=43): (55.8%)
IGA Score = 0 (‘Cleared’) or 1 (‘Minimal’), subjects (%) (Week 52, 50 mg QD, N=43): (60.5%)
IGA Score = 0 (‘Cleared’), subjects (%) (Week 52, 50 mg QD, N=43): (23.3%)
IGA Score ≤2 (‘Mild’or better), subjects (%) (Week 52, 50 mg QD, N=43): (79.1%)
IGA Score = 0 (‘Cleared’) or 1 (‘Minimal’), subjects (%) (Week 52, 100 mg BID, N=42): (73.8%)
IGA Score = 0 (‘Cleared’), subjects (%) (Week 52, 100 mg BID, N=42): (42.9%)
IGA Score ≤2 (‘Mild’or better), subjects (%) (Week 52, 100 mg BID, N=42): (76.2%)
IGA Score = 0 (‘Cleared’) or 1 (‘Minimal’), subjects (%) (Week 52, 100 mg QD, N=43): (60.5%)
IGA Score = 0 (‘Cleared’), subjects (%) (Week 52, 100 mg QD, N=43): (30.2%)
IGA Score ≤2 (‘Mild’or better), subjects (%) (Week 52, 100 mg QD, N=43): (67.4%)
IGA Score = 0 (‘Cleared’) or 1 (‘Minimal’), subjects (%) [6]: (65.7%)
IGA Score = 0 (‘Cleared’), subjects (%) [6]: (31.4%)
IGA Score ≤2 (‘Mild’or better), subjects (%) [6]: (77.1%)
